Results reported in ChEMBL document CHEMBL1649524, “Resistance selection studies comparing the activity of razupenem (PTZ601) to vancomycin and linezolid against eight methicillin-resistant and two methicillin-susceptible Staphylococcus aureus strains” (2009).
Values after ≈ are worked out from the molar mass of the structure shown.

What was measured:
Format in all cases: functional
Staphylococcus aureus [1] = assay: Antimicrobial activity against heterogeneous vancomycin-intermediate Staphylococcus aureus 873 by macrodilution method
Staphylococcus aureus [2] = assay: Antimicrobial activity against heterogeneous vancomycin-intermediate Staphylococcus aureus 168 by macrodilution method
Staphylococcus aureus [3] = assay: Antimicrobial activity against vancomycin-intermediate Staphylococcus aureus 1287 by macrodilution method
Staphylococcus aureus [4] = assay: Antimicrobial activity against methicillin-resistant Staphylococcus aureus 525 by macrodilution method
Staphylococcus aureus [5] = assay: Antimicrobial activity against vancomycin-resistant Staphylococcus aureus 510 by macrodilution method
Staphylococcus aureus [6] = assay: Antimicrobial activity against heterogeneous vancomycin-intermediate Staphylococcus aureus 168 after 50 passages by macrodilution method
Staphylococcus aureus [7] = assay: Antimicrobial activity against heterogeneous vancomycin-intermediate Staphylococcus aureus 873 after 30 passages by macrodilution method
Staphylococcus aureus [8] = assay: Antimicrobial activity against vancomycin-intermediate Staphylococcus aureus 555 after 27 passages by macrodilution method
Staphylococcus aureus [9] = assay: Antimicrobial activity against methicillin-susceptible Staphylococcus aureus 543 after 50 passages by macrodilution method
Staphylococcus aureus [10] = assay: Antimicrobial activity against methicillin-resistant Staphylococcus aureus 525 measured on day 5 by macrodilution method; settings: Staphylococcus aureus, 525, 120 h
Staphylococcus aureus [11] = assay: Antimicrobial activity against methicillin-susceptible Staphylococcus aureus 540 measured on day 5 by macrodilution method; settings: Staphylococcus aureus, 540, 120 h
Staphylococcus aureus [12] = assay: Antimicrobial activity against methicillin-susceptible Staphylococcus aureus 543 measured on day 5 by macrodilution method; settings: Staphylococcus aureus, 543, 120 h
Staphylococcus aureus [13] = assay: Antimicrobial activity against vancomycin-resistant Staphylococcus aureus 510 measured on day 5 by macrodilution method; settings: Staphylococcus aureus, 510, 120 h
Staphylococcus aureus [14] = assay: Antimicrobial activity against vancomycin-resistant Staphylococcus aureus 509 measured on day 5 by macrodilution method; settings: Staphylococcus aureus, 509, 120 h
Staphylococcus aureus [15] = assay: Antimicrobial activity against heterogeneous vancomycin-intermediate Staphylococcus aureus 168 measured on day 10 by macrodilution method; settings: Staphylococcus aureus, 168, 240 h
Staphylococcus aureus [16] = assay: Antimicrobial activity against vancomycin-intermediate Staphylococcus aureus 1287 measured on day 10 by macrodilution method; settings: Staphylococcus aureus, 1287, 240 h
Staphylococcus aureus [17] = assay: Antimicrobial activity against methicillin-resistant Staphylococcus aureus 525 measured on day 10 by macrodilution method; settings: Staphylococcus aureus, 525, 240 h
Staphylococcus aureus [18] = assay: Antimicrobial activity against methicillin-susceptible Staphylococcus aureus 540 measured on day 10 by macrodilution method; settings: Staphylococcus aureus, 540, 240 h
Staphylococcus aureus [19] = assay: Antimicrobial activity against methicillin-susceptible Staphylococcus aureus 543 measured on day 10 by macrodilution method; settings: Staphylococcus aureus, 543, 240 h
Staphylococcus aureus [20] = assay: Antimicrobial activity against vancomycin-resistant Staphylococcus aureus 510 measured on day 10 by macrodilution method; settings: Staphylococcus aureus, 510, 240 h
Staphylococcus aureus [21] = assay: Antimicrobial activity against heterogeneous vancomycin-intermediate Staphylococcus aureus 168 measured on day 15 by macrodilution method; settings: Staphylococcus aureus, 168, 360 h
Staphylococcus aureus [22] = assay: Antimicrobial activity against vancomycin-intermediate Staphylococcus aureus 555 measured on day 15 by macrodilution method; settings: Staphylococcus aureus, 555, 360 h
Staphylococcus aureus [23] = assay: Antimicrobial activity against methicillin-resistant Staphylococcus aureus 525 measured on day 15 by macrodilution method; settings: Staphylococcus aureus, 525, 360 h
Staphylococcus aureus [24] = assay: Antimicrobial activity against methicillin-susceptible Staphylococcus aureus 543 measured on day 15 by macrodilution method; settings: Staphylococcus aureus, 543, 360 h
Staphylococcus aureus [25] = assay: Antimicrobial activity against heterogeneous vancomycin-intermediate Staphylococcus aureus 168 measured on day 25 by macrodilution method; settings: Staphylococcus aureus, 168, 600 h
Staphylococcus aureus [26] = assay: Antimicrobial activity against vancomycin-intermediate Staphylococcus aureus 1287 measured on day 25 by macrodilution method; settings: Staphylococcus aureus, 1287, 600 h
Staphylococcus aureus [27] = assay: Antimicrobial activity against methicillin-resistant Staphylococcus aureus 547 measured on day 25 by macrodilution method; settings: Staphylococcus aureus, 547, 600 h
Staphylococcus aureus [28] = assay: Antimicrobial activity against methicillin-susceptible Staphylococcus aureus 543 measured on day 25 by macrodilution method; settings: Staphylococcus aureus, 543, 600 h
Staphylococcus aureus [29] = assay: Antimicrobial activity against vancomycin-resistant Staphylococcus aureus 510 measured on day 25 by macrodilution method; settings: Staphylococcus aureus, 510, 600 h
Staphylococcus aureus [30] = assay: Antimicrobial activity against heterogeneous vancomycin-intermediate Staphylococcus aureus 168 measured on day 30 by macrodilution method
Staphylococcus aureus [31] = assay: Antimicrobial activity against methicillin-resistant Staphylococcus aureus 525 measured on day 30 by macrodilution method
Staphylococcus aureus [32] = assay: Antimicrobial activity against methicillin-resistant Staphylococcus aureus 547 measured on day 30 by macrodilution method
Staphylococcus aureus [33] = assay: Antimicrobial activity against methicillin-susceptible Staphylococcus aureus 540 measured on day 30 by macrodilution method
Staphylococcus aureus [34] = assay: Antimicrobial activity against methicillin-susceptible Staphylococcus aureus 543 measured on day 30 by macrodilution method
Staphylococcus aureus [35] = assay: Antimicrobial activity against heterogeneous vancomycin-intermediate Staphylococcus aureus 873 measured on day 35 by macrodilution method
Staphylococcus aureus [36] = assay: Antimicrobial activity against vancomycin-intermediate Staphylococcus aureus 555 measured on day 35 by macrodilution method
Staphylococcus aureus [37] = assay: Antimicrobial activity against methicillin-resistant Staphylococcus aureus 547 measured on day 35 by macrodilution method
Staphylococcus aureus [38] = assay: Antimicrobial activity against methicillin-susceptible Staphylococcus aureus 540 measured on day 35 by macrodilution method
Staphylococcus aureus [39] = assay: Antimicrobial activity against methicillin-susceptible Staphylococcus aureus 543 measured on day 35 by macrodilution method
Staphylococcus aureus [40] = assay: Antimicrobial activity against heterogeneous vancomycin-intermediate Staphylococcus aureus 168 measured on day 40 by macrodilution method
Staphylococcus aureus [41] = assay: Antimicrobial activity against heterogeneous vancomycin-intermediate Staphylococcus aureus 873 measured on day 40 by macrodilution method
Staphylococcus aureus [42] = assay: Antimicrobial activity against methicillin-susceptible Staphylococcus aureus 543 measured on day 40 by macrodilution method
Staphylococcus aureus [43] = assay: Antimicrobial activity against vancomycin-intermediate Staphylococcus aureus 1287 measured on day 45 by macrodilution method
Staphylococcus aureus [44] = assay: Antimicrobial activity against methicillin-resistant Staphylococcus aureus 547 measured on day 45 by macrodilution method
Staphylococcus aureus [45] = assay: Antimicrobial activity against methicillin-susceptible Staphylococcus aureus 543 measured on day 45 by macrodilution method
Staphylococcus aureus [46] = assay: Antimicrobial activity against vancomycin-resistant Staphylococcus aureus 510 measured on day 45 by macrodilution method
Staphylococcus aureus [47] = assay: Antimicrobial activity against vancomycin-resistant Staphylococcus aureus 509 measured on day 45 by macrodilution method
Staphylococcus aureus [48] = assay: Antimicrobial activity against vancomycin-intermediate Staphylococcus aureus 555 measured on day 50 by macrodilution method
Staphylococcus aureus [49] = assay: Antimicrobial activity against methicillin-resistant Staphylococcus aureus 547 measured on day 50 by macrodilution method
Staphylococcus aureus [50] = assay: Antimicrobial activity against methicillin-susceptible Staphylococcus aureus 540 measured on day 50 by macrodilution method
Staphylococcus aureus [51] = assay: Antimicrobial activity against vancomycin-resistant Staphylococcus aureus 510 measured on day 50 by macrodilution method

SMILES: C[C@H]1C=C(c2csc(SC3=C(C(=O)O)N4C(=O)[C@H]([C@@H](C)O)[C@H]4[C@H]3C)n2)CN1 [RAZUPENEM]
- MIC (Staphylococcus aureus [1]): 2 µg/mL (≈ 4.91 µM)
- MIC (Staphylococcus aureus [2]): 4 µg/mL (≈ 9.82 µM)
- MIC (Staphylococcus aureus [3]): 0.06 µg/mL (≈ 0.147 µM)
- MIC (Staphylococcus aureus [4]): 1 µg/mL (≈ 2.45 µM)
- MIC (Staphylococcus aureus [5]): 1 µg/mL (≈ 2.45 µM)
- MIC (Staphylococcus aureus [6]): 8 µg/mL (≈ 19.6 µM)
- MIC (Staphylococcus aureus [7]): 16 µg/mL (≈ 39.3 µM)
- MIC (Staphylococcus aureus [8]): 4 µg/mL (≈ 9.82 µM)
- MIC (Staphylococcus aureus [9]): 0.06 µg/mL (≈ 0.147 µM)
- MIC (Staphylococcus aureus [10]): 2 µg/mL (≈ 4.91 µM)
- MIC (Staphylococcus aureus [11]): 0.016 µg/mL (≈ 0.0393 µM)
- MIC (Staphylococcus aureus [12]): 0.03 µg/mL (≈ 0.0736 µM)
- MIC (Staphylococcus aureus [13]): 2 µg/mL (≈ 4.91 µM)
- MIC (Staphylococcus aureus [14]): 2 µg/mL (≈ 4.91 µM)
- MIC (Staphylococcus aureus [15]): 4 µg/mL (≈ 9.82 µM)
- MIC (Staphylococcus aureus [16]): 0.25 µg/mL (≈ 0.613 µM)
- MIC (Staphylococcus aureus [17]): 4 µg/mL (≈ 9.82 µM)
- MIC (Staphylococcus aureus [18]): 0.016 µg/mL (≈ 0.0393 µM)
- MIC (Staphylococcus aureus [19]): 0.03 µg/mL (≈ 0.0736 µM)
- MIC (Staphylococcus aureus [20]): 2 µg/mL (≈ 4.91 µM)
- MIC (Staphylococcus aureus [21]): 8 µg/mL (≈ 19.6 µM)
- MIC (Staphylococcus aureus [22]): 2 µg/mL (≈ 4.91 µM)
- MIC (Staphylococcus aureus [23]): 4 µg/mL (≈ 9.82 µM)
- MIC (Staphylococcus aureus [24]): 0.03 µg/mL (≈ 0.0736 µM)
- MIC (Staphylococcus aureus [25]): 8 µg/mL (≈ 19.6 µM)
- MIC (Staphylococcus aureus [26]): 0.5 µg/mL (≈ 1.23 µM)
- MIC (Staphylococcus aureus [27]): 4 µg/mL (≈ 9.82 µM)
- MIC (Staphylococcus aureus [28]): 0.03 µg/mL (≈ 0.0736 µM)
- MIC (Staphylococcus aureus [29]): 4 µg/mL (≈ 9.82 µM)
- MIC (Staphylococcus aureus [30]): 8 µg/mL (≈ 19.6 µM)
- MIC (Staphylococcus aureus [31]): 8 µg/mL (≈ 19.6 µM)
- MIC (Staphylococcus aureus [32]): 2 µg/mL (≈ 4.91 µM)
- MIC (Staphylococcus aureus [33]): 4 µg/mL (≈ 9.82 µM)
- MIC (Staphylococcus aureus [34]): 8 µg/mL (≈ 19.6 µM)
- MIC (Staphylococcus aureus [35]): 16 µg/mL (≈ 39.3 µM)
- MIC (Staphylococcus aureus [36]): 4 µg/mL (≈ 9.82 µM)
- MIC (Staphylococcus aureus [37]): 16 µg/mL (≈ 39.3 µM)
- MIC (Staphylococcus aureus [38]): 0.06 µg/mL (≈ 0.147 µM)
- MIC (Staphylococcus aureus [39]): 0.06 µg/mL (≈ 0.147 µM)
- MIC (Staphylococcus aureus [40]): 8 µg/mL (≈ 19.6 µM)
- MIC (Staphylococcus aureus [41]): 16 µg/mL (≈ 39.3 µM)
- MIC (Staphylococcus aureus [42]): 0.06 µg/mL (≈ 0.147 µM)
- MIC (Staphylococcus aureus [43]): 2 µg/mL (≈ 4.91 µM)
- MIC (Staphylococcus aureus [44]): 16 µg/mL (≈ 39.3 µM)
- MIC (Staphylococcus aureus [45]): 0.06 µg/mL (≈ 0.147 µM)
- MIC (Staphylococcus aureus [46]): 8 µg/mL (≈ 19.6 µM)
- MIC (Staphylococcus aureus [47]): 4 µg/mL (≈ 9.82 µM)
- MIC (Staphylococcus aureus [48]): 16 µg/mL (≈ 39.3 µM)
- MIC (Staphylococcus aureus [49]): 16 µg/mL (≈ 39.3 µM)
- MIC (Staphylococcus aureus [50]): 0.125 µg/mL (≈ 0.307 µM)
- MIC (Staphylococcus aureus [51]): 4 µg/mL (≈ 9.82 µM)
